Measurements from US8163870B2, “Channel forming peptides” (Kansas State University Research Foundation, priority 2000, dated 2012).

Key:
[1] = tested on: cultured CF monolayers; test: Glutathione transport in cultured CF monolayers; assay type: cell-based
[2] = tested on: MDCK cells; assay type: cell-based, canine; conditions: peptide at 500 μM
Source text: Cell culture: MDCK cells were a generous gift of Dr. Lawrence Sullivan (Kansas University Medical Center, Kansas City, Kans.). T84 cells were obtained from Dr. Daniel Devor (University of Pittsburgh, Pittsburgh, Pa.). MDCK and T84 cells were maintained with similar culture procedures. The culture medium was a 1:1 mixture of DMEM and Ham's F-12 (Gibco BRL, Grand Island, N.Y.) supplemented with 5% heat inactivated fetal bovine serum (BioWhittaker, Walkersville, Md.), and 1% penicillin and streptomycin (Gibco BRL). Cells were grown in plastic culture flasks in a humidified environment with 5% CO2 at 37° C. and passaged every 5-7 days. For Ussing chamber experiments, cells were plated on 1.13 cm^2 permeable supports (Snapwell™, Costar®, Cambridge, Mass.) at a density of approximately 1×10^6 cells/well and incubated in DMEM/F-12 supplemented with FBS and antibiotics (changed every other day) for 2-3 weeks prior to being mounted in modified Ussing flux chambers.
To form monolayers, the cells were plated onto the upper surface of a permeable membrane that forms the bottom of a plastic well. Two types were used. One was the Transwell™ insert (Costar®, Cambridge, Mass.) supported in a six-well tissue culture plate and the other type was the Snapwell™ (Costar®, Cambridge, Mass.). During incubation, the medium was replaced at 48-72 hour intervals. Confluent monolayers formed within 72 hours. Experiments were performed on the monolayers 6-9 days after the initial plating. Net fluid secretion responses were optimal after six days.
Solutions: Ringer solution was made fresh daily. The final concentration (in mM) was 120 NaCl, 25 NaHCO3 3.3 KH2HPO4, 0.8 K2HPO4, 1.2 MgCl2, 1.2 CaCl2, (290±2 mOsmol). All components of the Ringer solution were from Sigma (St. Louis, Mo.).
(§1) Epithelial electrical measurements: Transepithelial ion transport was evaluated in a modified Ussing chamber (Model DCV9, Navicyte, San Diego, Calif.). The Ussing chamber's fluid resistance compensation was completed in Ringer solution (see below). For electrical measurements cell monolayers were bathed in Ringer solution maintained at 37° C. and continuously bubbled with 5% CO2:95% O2. The transepithelial membrane potential (Vte) was clamped to zero and the transepithelial short circuit current (Isc), an indicator of net ion transport, was measured continuously with a voltage clamp apparatus (Model 558C, University of Iowa, Department of Bioengineering, Iowa City, Iowa). Data were digitally acquired at 1 Hz with a Macintosh computer (Apple Computer, Cuppertino, Calif.) using Aqknowledge software (ver. 3.2.6, BIOPAC Systems, Santa Barbara, Calif.) with an MP100A-CE interface.
as §1, with “Transepithelial” for “Epithelial electrical measurements: Transepithelial”, “(composition (in mM) was 120 NaCl, 25 NaHCO3 3.3 KH2HPO4, 0.8 K2HPO4, 1.2 MgCl2, 1.2 CaCl2).” for “(see below).”
MDCK cell monolayers (in the presence of 1-EBIO to maximize basolateral membrane K^+ conductance) were exposed on the apical aspect to escelating peptide concentrations. Maximal change in Isc (relative to the Isc prior to peptide exposure) was recorded following each increment in apical peptide concentration. […]

[3] = Chemical cross-linking (BS3) and SDS-PAGE, oligomeric state of peptide in solution; assay type: physicochemical; conditions: SDS-PAGE
Method: Chemical cross-linking: In order to visualize the oligomeric state of the peptide in solution a chemical cross-linking protocol was developed. Calculated amounts of each peptide were weighted out and dissolved in 1 mL of distilled water to make 1 mM stock solutions. A 100 mM stock solution of the chemical crosslinking reagent Bis[Sulfosuccinimidyl]suberate, BS^3, (Pierce Chemical Co., Rockford, Ill.) was prepared in dimethyl sulfoxide (DMSO). […] Sample were allowed to sit at room temperature for 15 minutes. 1-6 μL of 100 mM BS^3 was then added to the previously prepared peptide such that the crosslinking reagent was present in 20-fold excess. The final volume for each reaction was 100 μL. […] Each sample was then vacuum dried. Later dry samples were re-dissolved in 60 μL of distilled water along with 60 μL of a 2×-tricine SDS sample buffer (Novex, San Diego). All samples were then boiled at 100° C. for 5 minutes. 5 μL aliquots of each SDS boiled sample was then loaded into separate lanes of pre-cast, 1.0 mm, 10 well, 10-20% tricine gels (Novex, San Diego). Pre-made Novex tricine-SDS buffer was used in the electrophoresis. The reference well contained 1 μL of MultiMark® multi-colored molecular weight standard (Novex, San Diego). The electrophoresis was carried out at a constant 110 Volts for 90 minutes. […]

[4] = tested on: MDCK monolayers; test: FITC-dextran permeability assay; assay type: cell-based, canine; conditions: SEQ ID NO. 27 100 μM; EDTA 3 mM in hypotonic Ringer
Method: Confluent MDCK cell monolayers were washed once with Ringer solution and placed in one of three treatments containing FITC-conjugated dextran (Sigma Chemical Co.) in the apical compartment; 1, Ringer solution in the apical and basolateral compartments; 2, Ringer solution apical and basolateral with SEQ ID No. 27 (also referred to herein as NC-1059) (100 μM) in the apical solution; 3, EDTA (3 mM) in Ringer solution that had been diluted 1:1 with distilled water in both the apical and basolateral compartments. Monolayers are incubated at 37° C. for 60 minutes and the solution in the basolateral well sampled to quantify fluorescently labeled dextran. Monolayers are then washed with Ringer solution to remove peptide, EDTA, and dextran, placed in tissue culture medium and returned to the incubator for two days before the assay was conducted again.
FITC-dextran permeability assay. Epithelial permeability to uncharged solutes of various sizes was assessed with monolayers grown on Snapwell tissue culture inserts as described above. […] Monolayers were incubated at 37° C. for 60 minutes and the solution in the basolateral well was sampled to quantify fluorescently labeled dextran. […]

[5] = tested on: tight junction-associated proteins (actin, ZO-1, occludin) in MDCK monolayers; test: Confocal microscopy, immunolocalization of tight-junction associated proteins; assay type: cell-based, canine; conditions: peptides 100 μM; EDTA 6 mM and hypotonic Ringer
Method: Confocal microscopy. Immunoreactivity to antibodies raised against tight-junction associated proteins was assessed by confocal microscopy (Zeiss, Thornwood, N.Y.). Samples for visualization were prepared from monolayers used in electrophysiological studies. After removal from Ussing chambers, monolayers were washed in Ringer solution and fixed overnight in 10% neutral buffered formalin. Monolayers were washed 3 times in PBS, permeabilized with 0.1% Triton X-100 in PBS, blocked with goat serum, and then exposed to primary antibody in a 1:500 dilution (rat anti-ZO-1, cat# MAB120, Chemicon, Temecula, Calif. or rabbit anti-occludin, cat.# 71-1500; Zymed, San Francisco, Calif.) for 1 hour at room temperature. After being washed 3 times in PBS, FITC-conjugated goat anti-rat (cat #AP136F, Chemicon) or goat anti-rabbit (cat #FI-1000; Vector Laboratories, Burlingame, Calif.) secondary antibodies were employed (1:1000 dilution) with exposure occurring for 1 hour at room temperature. TRITC-labeled phalloidin (0.1 mg/ml in methanol; Sigma Chemical Co.) was used for F-actin localization was applied concurrently with the secondary antibody. A KrAr laser was used to excite the fluorophores. Filter sets used for fluorescein were BP485/20 nm for excitation and BP515-540 nm for emission and for rhodamine BP530-585 nm for excitation and LP590 nm for emission.

Compound	glutathione transport [1]	Activity profile in MDCK cells [2] [at 500 μM μA/cm2]	aggregation state in solution [3]	permeation of 20 kDa FITC-dextran conjugate [4]	distribution of actin, occludin and ZO-1 immunoreactivity [5]
PARVGLGITTVLTMTTQSSGSRAKKKK (PARVGLGITTVLTMTTQSSGSRAKKKK; Modified Homo sapiens) [SEQ ID No. 2, reference compound]	active but to a much lesser extent	12.5	only trace amounts of aggregates higher than trimer		
O=C(O)CN(CCN(CC(=O)O)CC(=O)O)CC(=O)O [EDTA]				highest level of permeation	profound changes in localization of the peri-junctional actin ring, as well as the distribution of ZO-1
